This is an account of results in patent publication US11981951B2, “Process for the production of methyl methacrylate” (Mitsubishi Chemical UK Limited, priority 2016, dated 2024).

The subject of one data set is E. coli strain MG1655. In words: Growth inhibition (methacrylate ester toxicity) test, E. coli. It is filed as cell-based. Particulars: Escherichia coli.
Data set [1] in a line: logPo/w (1-octanol/water partition coefficient). The class given is physicochemical. An excerpt:
In embodiments, the organic solvent has a logPo/w value of greater than or equal to 3.0. More preferably, the organic solvent has a logPo/w value of greater than or equal to 3.6, 3.7, 3.8, 3.9 or 4.0. logPo/w is defined as the logarithm of the partition coefficient of a particular solvent between a standardized 1:1 mixture of 1-octanol and water. The present inventors have shown that, with increasing logPo/w value there is a decrease in the resultant microorganism toxicity. Particularly preferred solvents are higher alkanes of C6 and above which may be linear or branched, cyclic alkanes of C7 and above and aromatic compounds, particularly benzene, substituted with one or more substituents of C3 and above, particularly alkyl substituents which may be linear or branched.

In data set [2] the test system is S. cerevisiae strain DSM70449. The data set can be described thus: Growth inhibition (methacrylate ester toxicity) test, S. cerevisiae. It is filed as cell-based. Particulars: Saccharomyces cerevisiae, read-out: IC50 range.
The nature of data set [3]: Extraction of BMA and MMA from biotransformation medium into dodecane (GC-FID). The class given is physicochemical. Particulars: for average amount extracted into dodecane: across all samples. Here is the method: The samples from the BMA/MMA extraction experiments were analysed using gas chromatography under the following operating conditions:
Biomass was harvested from each flask and a separate biotransformation conducted. BMA and MMA levels in dodecane following solvent extraction was quantified by gas chromatography flame ionization detector (GC-FID).
In a 1 I baffled shake flask, a starter culture of 200 ml LB medium containing 200 µg/ml ampicillin was grown for 16.33 hours. The culture was back diluted to OD600 0.2 into 5 1 I baffled shake flasks containing 300 ml fresh LB medium and left to grow at 30° C. and 250 rpm for 23.35 hours. The biomass was then harvested by centrifugation at 5000 rpm and 4° C. for 15 minutes. Each cell pellet was washed with 100 mM sodium phosphate (pH 6.7) and the centrifugation step was repeated. The biomass was resuspended in the required volume of biotransformation medium until an OD600 of 25 was reached.
Biotransformation reactions were conducted in 5×250 ml sealed Schott bottles at 30° C. and 180 rpm for 24 hours.
Samples were taken for GC-FID analysis at 5 hour and 24 hour time points. At each time point 5 ml sample was removed and transferred to a 15 ml falcon tube. Acetonitrile (5 ml) was added in addition to dodecane (1 ml). The mixture was vigorously shaken at >800 rpm for 10 minutes before centrifugation at 3900 rpm and 20° C. for 20 minutes. A 500 μl sample was taken from both the organic and aqueous phases, filtered through a 0.45 μm filter and placed in a crimped lid gas chromatography vial prior to injection.
Quantification of BMA and MMA levels in biotransformation samples was achieved by using external standard calibration […] obtained by preparing volumetric stock solutions of BMA and MMA at known concentrations.

Data set [4] in a line: Solubility limit in the fermentation medium. The class given is physicochemical. Particulars: plasma or biological fluid. The protocol: In embodiments where the C3-C12 methacrylate ester is butyl methacrylate, it is particularly preferred that the titre of butyl methacrylate in the fermentation medium is at least 120, 130, 140, 150 or 200 mg/l. […] At such a concentration, the need for an additional extraction solvent may be negated.

The mark [5] stands for this setting: MG1655, E. coli grown in MSX medium, from final biomass concentrations, read-out: IC50 range.
[6] abbreviates: E. coli MG1655 in LB complex medium, final biomass after 72 hours, concentration that halves MaxOD600, read-out: IC50 range.
Where [7] appears, read: S. cerevisiae DSM70449 in YEPD complex medium, final biomass after 72 hours, concentration that halves MaxOD600.

Values after ≈ are worked out from the molar mass of the structure shown. Where two headings read alike, the source gives them in different places.

A word on the IC50: it is the midpoint of a concentration-inhibition curve. By solubility is commonly meant how much of the substance goes into solution per volume. A low value points to a poorly soluble substance. In the case of `C=C(C)C(=O)OCCCC` [BMA, butyl methacrylate], the 50% inhibitory concentration (IC50) with E. coli strain MG1655 (setting [5]) was in the range of 70 to 110 µg/mL (≈ 0.492 to 0.774 mM); with E. coli strain MG1655 (setting [6]) it was 70 to 110 µg/mL (≈ 0.492 to 0.774 mM); in data set [2] (setting [7]), 40 to 70 µg/mL (≈ 0.281 to 0.492 mM). For the same compound, in data set [1] (1-octanol/water (1:1)), the logPo/w is reported as 2.57. The “average amount extracted into dodecane” value in data set [3] is “around 35.6%”. Further, the “extraction efficiency into dodecane compared to MMA” value in data set [3] (biotransformations 2 and 3 (40 mg/l added)) was 2.7 ×; in data set [3] (biotransformations 4 and 5 (100 mg/l added)) it was 3.3 ×. The solubility in data set [4] is about 220 µg/mL (≈ 1.55 mM).
`C=C(C)C(=O)OC` [MMA, methyl methacrylate]: the half-inhibitory concentration (IC50) in the data set on E. coli strain MG1655 (MG1655, 72 h, read-out: IC50 range) is 3190 to 4250 µg/mL (≈ 31.9 to 42.5 mM); with E. coli strain MG1655 (MG1655, read-out: IC50 range), 3190 to 4250 µg/mL (≈ 31.9 to 42.5 mM); in data set [2] (DSM70449, 72 h), 730 to 1450 µg/mL (≈ 7.29 to 14.5 mM). In data set [1] (1-octanol/water (1:1)), this compound registered a logPo/w of 0.95. Moreover, the “average amount extracted into dodecane” value in data set [3] was about 10.5%.
As to `C=C(C)C(=O)OC(C)C` [iPMA, isopropyl methacrylate], the IC50 fell in the range of 1180 to 1770 µg/mL (≈ 9.21 to 13.8 mM) in the data set on E. coli strain MG1655 (setting [5]), 1180 to 1770 µg/mL (≈ 9.21 to 13.8 mM) in the data set on E. coli strain MG1655 (setting [6]) and 660 to 990 µg/mL (≈ 5.15 to 7.72 mM) in data set [2] (setting [7]). Further, the logPo/w in data set [1] is given as 1.81.
